Data reported in patent publication US9497967B2, “Synergistic pesticidal compositions and related methods” (Dow AgroSciences LLC, priority 2013, dated 2016).

What was measured:
Assay type in all cases: in vivo
Conditions in all cases: alone
[1] = test system: diamondback moth, Plutella xylostella; assay: Cabbage plant track-sprayer bioassay against second instar diamondback moth
From the text: (§1) The method described in Colby S. R., “Calculating Synergistic and Antagonistic Responses of Herbicide Combinations,” Weeds, 1967, 15, 20-22 was used to determine an existence of synergic effect between the chloride channel activator compound and the pesticide (I), (II), or any agriculturally acceptable salt thereof in the formulated pesticidal composition. In this method, the percent insect control of the formulated pesticidal composition as observed in the study was compared to the “expected” percent control (E) as calculated by equation (1) (hereinafter “Colby's equation”) below: […]
Bioassays were performed for different active compounds. Cabbage plants with about two to three new-growth-true leaf stage were treated with different active compounds using a track sprayer application at 400 L/Ha spray volume. Three second instar diamondback moth, Plutella xylostella, were infested onto each leaf disc. The percent control of the pesticidal composition against diamondback moth, Plutella xylostella, was determined as the “Observed” action, and compared to those obtained by using about 0.0025 weight % of compound II, and using about 0.000078 weight % of emamectin benzoate alone. The “Colby's Expected Action” was calculated using Colby's equation as discussed previously.
Bioassays were performed wherein different active compounds were tested against diamondback moth, Plutella xylostella, using the procedure described in example 5A.

[2] = test system: South American brown stink bug, Euschistus heros; assay: Treated bean piece bioassay against third-instar nymphs of South American brown stink bug
From the text: as §1
The active compounds were formulated in a 10% acetone solution with 0.025% non-ionic surfactant, TWEEN® 20. Bioassays were performed for each different active solution. Bean pieces (about one inch-long) were used for the tests. Four bean pieces were placed in each tested active solution and left there for 10 minutes. […]
The percent control of the pesticidal composition against South American brown stink bug, Euschistus heros, was determined as the “Observed” action, and compared to those obtained by using about 0.04 weight % of compound I, and using about 0.000156 weight % of emamectin benzoate alone. The “Colby's Expected Action” was calculated using Colby's equation as discussed previously.

[3] = test system: Western plant bug, Lygus hesperus; assay: Treated bean piece bioassay against third-instar nymphs of Western plant bug
From the text: as §1
The active compounds were formulated in a 10% acetone solution with 0.025% non-ionic surfactant, TWEEN® 20. Bioassays were performed for each different active solution. Bean pieces (about one inch-long) were used for the tests. Four bean pieces were placed in each tested active solution and left there for 10 minutes. Bean pieces were taken out of the active solution, and each piece was placed in a well in a 32-well tray and allowed to air dry. Three third-instar nymphs of Western plant bug, Lygus hesperus, were infested into each well. The percent control of the pesticidal composition against Lygus hesperus bug was determined as the “Observed” action, and compared to those obtained by using about 0.04 weight % of compound I, and using about 0.20 weight % of emamectin benzoate alone. The “Colby's Expected Action” was calculated using Colby's equation as discussed previously.

Compound	% Control Three Days After Treatment ([1]; dose rate 0.000625 weight %)	% Control Four Days After Treatment ([2]; dose rate 0.04 weight %) [%]	% Control Three Days After Treatment ([3]; dose rate 0.04 weight %) [%]	% Control Three Days After Treatment ([3]; dose rate 0.04 weight %, listed as compound I)	% Control Three Days After Treatment ([1]; dose rate 0.000039 weight %) [%]	% Control Three Days After Treatment ([1]; dose rate 0.000078 weight %) [%]	% Control Four Days After Treatment ([2]; dose rate 0.000156 weight %) [%]	% Control Three Days After Treatment ([3]; dose rate 0.20 weight %) [%]	% Control Three Days After Treatment ([3]; dose rate 0.20 weight %, listed as emamectin benzoate)
CCN(C(=O)CCSCCC(F)(F)F)c1cn(-c2cccnc2)nc1Cl [Compound I, N-(3-chloro-1-(pyridin-3-yl)-1H-pyrazol-4-yl)-N-ethyl-3-((3,3,3-trifluoropropyl)thio)propanamide]	no control	8	0	no control					
emamectin benzoate					73.91	91.3	25	0	no control
